Results on seven compounds are retold here after article PMC12174726 (Chemmedchem, 2025).

For experiment [1], the system named is H3K27 acetylation. Put plainly: Western blot of H3K27ac levels in SU‐DHL‐10 cells. As to conditions: 24 h. The class given is cell-based.
In experiment [2] the test system is SU‐DHL‐10 cells. The experiment can be described thus: MTT proliferation assay, SU‐DHL‐10. The class given is cell-based. As to conditions: for IC50: Homo sapiens, n = 2, read-out: IC50 (cell proliferation). The procedure: (§1) Lymphoma cell lines were exposed to a large range of concentrations of each compound as single agent for 24 h or 72 h, followed by MTT and after 4 h SDS to stop the reaction. The day after, plates were read using a Cytation 3 plate reader (Biotek) and IC50s were calculated. DMSO was used as a control (untreated). IC50 is defined as the drug concentration giving 50% of proliferating cells compared to vehicle treated cells. IC50 was calculated by fitting the values via nonlinear regression (GraphPad Prism 8.0). Values represent mean ± S.D.

Experiment [3] deals with TMD8. The experiment can be described thus: MTT proliferation assay, TMD8. The class given is cell-based. The note with it: Homo sapiens, TMD8, 72 h treatment, n = 2, read-out: IC50 (cell proliferation). On the procedure:
as §1

Experiment [4] has as its system WSU‐DLCL2. The experiment can be described thus: MTT proliferation assay, WSU‐DLCL2. The class given is cell-based. The note with it: Homo sapiens, WSUDLCL2, WSU‐DLCL2, 72 h treatment, n = 2, read-out: IC50 (cell proliferation). On the procedure:
as §1

The target of experiment [5] is T1, p300 (Homo sapiens, UniProt Q09472). The experiment can be described thus: p300 catalytic activity inhibition. The class given is biochemical. The note with it: means ± S.D., n = 3. The text has this: (§2) To answer this question, we initially characterized them both for their inhibition of CBP and p300 catalytic activities.
T1 sequence (Q09472 whole entry): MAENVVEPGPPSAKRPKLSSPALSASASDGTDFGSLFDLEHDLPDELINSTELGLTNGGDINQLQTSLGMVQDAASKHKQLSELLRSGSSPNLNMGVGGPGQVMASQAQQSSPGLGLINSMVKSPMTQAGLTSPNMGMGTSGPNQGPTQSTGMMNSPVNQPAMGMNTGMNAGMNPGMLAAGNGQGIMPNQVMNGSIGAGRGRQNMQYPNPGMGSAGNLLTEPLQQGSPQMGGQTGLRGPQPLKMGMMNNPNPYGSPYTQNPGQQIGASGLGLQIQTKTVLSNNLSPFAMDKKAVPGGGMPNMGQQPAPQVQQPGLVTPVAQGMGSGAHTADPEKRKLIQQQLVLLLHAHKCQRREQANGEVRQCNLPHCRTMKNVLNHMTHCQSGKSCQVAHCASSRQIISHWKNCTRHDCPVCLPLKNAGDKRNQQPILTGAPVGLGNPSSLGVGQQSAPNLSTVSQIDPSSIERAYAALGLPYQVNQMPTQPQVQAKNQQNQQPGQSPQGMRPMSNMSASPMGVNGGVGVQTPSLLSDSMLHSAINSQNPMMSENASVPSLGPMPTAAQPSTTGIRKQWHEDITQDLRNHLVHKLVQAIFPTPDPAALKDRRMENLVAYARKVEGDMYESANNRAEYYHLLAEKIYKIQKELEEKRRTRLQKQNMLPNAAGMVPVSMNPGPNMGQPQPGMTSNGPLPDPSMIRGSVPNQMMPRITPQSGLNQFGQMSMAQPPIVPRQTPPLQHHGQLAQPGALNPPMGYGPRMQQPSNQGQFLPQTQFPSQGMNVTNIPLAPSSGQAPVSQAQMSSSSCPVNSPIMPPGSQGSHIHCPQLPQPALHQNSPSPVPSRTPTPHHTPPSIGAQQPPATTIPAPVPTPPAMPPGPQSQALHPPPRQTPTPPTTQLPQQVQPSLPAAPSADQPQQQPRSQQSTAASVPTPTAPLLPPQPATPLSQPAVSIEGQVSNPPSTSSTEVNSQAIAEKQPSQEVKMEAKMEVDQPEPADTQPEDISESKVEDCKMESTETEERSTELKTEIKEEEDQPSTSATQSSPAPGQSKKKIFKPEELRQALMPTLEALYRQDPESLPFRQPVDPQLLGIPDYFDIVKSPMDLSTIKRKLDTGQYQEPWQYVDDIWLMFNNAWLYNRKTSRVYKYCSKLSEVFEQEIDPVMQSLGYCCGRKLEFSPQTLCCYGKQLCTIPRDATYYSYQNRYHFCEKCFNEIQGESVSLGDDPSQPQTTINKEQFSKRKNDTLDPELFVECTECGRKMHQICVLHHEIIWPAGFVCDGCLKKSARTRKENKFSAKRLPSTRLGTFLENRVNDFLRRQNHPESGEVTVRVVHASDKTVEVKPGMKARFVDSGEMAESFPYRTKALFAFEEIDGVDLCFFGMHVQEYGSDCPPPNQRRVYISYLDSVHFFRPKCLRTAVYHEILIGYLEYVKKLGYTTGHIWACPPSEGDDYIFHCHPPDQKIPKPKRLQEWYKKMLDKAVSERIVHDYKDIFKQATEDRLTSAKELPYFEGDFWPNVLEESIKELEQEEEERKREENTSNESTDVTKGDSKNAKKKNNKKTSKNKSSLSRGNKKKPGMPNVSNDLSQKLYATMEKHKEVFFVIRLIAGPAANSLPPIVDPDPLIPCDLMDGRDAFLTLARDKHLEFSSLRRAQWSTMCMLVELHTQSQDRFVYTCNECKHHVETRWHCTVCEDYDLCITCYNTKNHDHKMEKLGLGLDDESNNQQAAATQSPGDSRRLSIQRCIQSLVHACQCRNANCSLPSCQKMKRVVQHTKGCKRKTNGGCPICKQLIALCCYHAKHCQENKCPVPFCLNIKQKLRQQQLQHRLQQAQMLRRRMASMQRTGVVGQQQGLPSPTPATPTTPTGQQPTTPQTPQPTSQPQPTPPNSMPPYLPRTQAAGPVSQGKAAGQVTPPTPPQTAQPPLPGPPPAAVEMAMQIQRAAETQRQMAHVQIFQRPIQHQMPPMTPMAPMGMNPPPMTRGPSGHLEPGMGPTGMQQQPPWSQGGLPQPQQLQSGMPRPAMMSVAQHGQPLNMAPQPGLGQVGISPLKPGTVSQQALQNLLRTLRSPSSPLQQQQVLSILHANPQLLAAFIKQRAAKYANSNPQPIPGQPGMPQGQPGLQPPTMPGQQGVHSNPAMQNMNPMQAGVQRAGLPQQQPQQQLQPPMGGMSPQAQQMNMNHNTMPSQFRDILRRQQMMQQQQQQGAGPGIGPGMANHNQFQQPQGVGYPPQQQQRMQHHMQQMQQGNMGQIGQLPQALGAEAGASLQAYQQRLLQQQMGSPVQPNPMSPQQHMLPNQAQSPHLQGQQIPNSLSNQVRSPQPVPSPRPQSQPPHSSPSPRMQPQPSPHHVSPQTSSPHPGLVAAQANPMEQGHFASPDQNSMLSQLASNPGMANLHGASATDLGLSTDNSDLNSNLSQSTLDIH
In experiment [6] the target is T1, p300. The experiment can be described thus: Western blot of p300 levels in SU‐DHL‐10 cells. The class given is cell-based. Set-up: WB analysis of p300 levels in the SU‐DHL‐10 cell line; endogenous in cells; host or cells: SU-DHL-10. As to conditions: for p300 protein levels (WB): SU‐DHL‐10, increasing concentrations. On the procedure: (§3) Following compound treatment for the indicated time frame (4 to 24 h), cells were solubilized, and the protein content was determined using the BCA protein assay (Pierce Chemical Co). Lysates were fractionated by SDS–polyacrylamide gel electrophoresis (SDS‐PAGE). Membranes were incubated with anti‐CBP (CBP (D6C5) Rabbit mAb #7389, Cell Signaling Technology), anti‐p300 (Anti‐KAT3B/p300 antibody (3G230), Abcam) or anti‐GAPDH (GAPDH Monoclonal Antibody (FF26A), Thermo Fisher Scientific) antibodies overnight. This was followed by incubation with the appropriate horseradish peroxidase‐conjugated anti‐mouse or anti‐rabbit secondary antibodies (Cytiva Europe) for 1 h. Enhanced chemiluminescence detection was then done following the manufacturer's instructions. GAPDH was used as a loading control. Images were quantified with the internal software of the Fusion Solo S (Vilber).

Experiment [7] addresses T2, CBP (Homo sapiens, UniProt Q92793). The experiment can be described thus: CBP catalytic activity inhibition. Type of experiment: biochemical. The note with it: means ± S.D., n = 3.
From the text: as §2

In experiment [8] the test system is SU‐DHL‐2, SU‐DHL‐16, TMD8, and WSU‐DLCL2. The experiment can be described thus: MTT proliferation assay, additional DLBCL cell lines (summary). The class given is cell-based. The note with it: 72 h, range over DLBCL cell lines and both compounds, read-out: viability IC50, range over cell lines. On the procedure:
as §1

Experiment [9] concerns the target T2, CBP. Put plainly: Western blot of CBP levels in SU‐DHL‐10 cells. The class given is cell-based. Set-up: WB analysis of CBP levels in the DLBCL SU‐DHL‐10 cell line; endogenous in cells; host or cells: SU-DHL-10. The procedure: as §3
The subject of experiment [10] is SU‐DHL‐16. Put plainly: MTT proliferation assay, SU‐DHL‐16. The class given is cell-based. The note with it: Homo sapiens, SU‐DHL‐16, 72 h treatment, n = 2, read-out: IC50 (cell proliferation). The procedure: as §1
Experiment [11] deals with SU‐DHL‐2. Put plainly: MTT proliferation assay, SU‐DHL‐2. As to conditions: Homo sapiens, SU‐DHL‐2, 72 h treatment, n = 2, read-out: IC50 (cell proliferation). The class given is cell-based. The procedure:
as §1

The subject of experiment [12] is histone deacetylases (HDACs). Set-up: method as in PMID 26718586. As to conditions: cited from earlier work.
Experiment [13] has as its system neuroblastoma cell. More on the design: method as in PMID 34772733. As to conditions: cited from earlier work.
The mark [14] stands for this setting: SU-DHL10, SU‐DHL‐10, 24 h treatment.
Setting [15] is: SU-DHL10, SU‐DHL‐10, 72 h treatment.

Entries after “also recorded” stand apart in the source; their conditions may differ. Like-named read-outs stand apart in the source and are kept apart here. Residues, ends and D or L forms follow the SMILES beside them. *: point of attachment. Cbz = O=C(OCc1ccccc1)*

T2 sequence (Q92793 whole entry): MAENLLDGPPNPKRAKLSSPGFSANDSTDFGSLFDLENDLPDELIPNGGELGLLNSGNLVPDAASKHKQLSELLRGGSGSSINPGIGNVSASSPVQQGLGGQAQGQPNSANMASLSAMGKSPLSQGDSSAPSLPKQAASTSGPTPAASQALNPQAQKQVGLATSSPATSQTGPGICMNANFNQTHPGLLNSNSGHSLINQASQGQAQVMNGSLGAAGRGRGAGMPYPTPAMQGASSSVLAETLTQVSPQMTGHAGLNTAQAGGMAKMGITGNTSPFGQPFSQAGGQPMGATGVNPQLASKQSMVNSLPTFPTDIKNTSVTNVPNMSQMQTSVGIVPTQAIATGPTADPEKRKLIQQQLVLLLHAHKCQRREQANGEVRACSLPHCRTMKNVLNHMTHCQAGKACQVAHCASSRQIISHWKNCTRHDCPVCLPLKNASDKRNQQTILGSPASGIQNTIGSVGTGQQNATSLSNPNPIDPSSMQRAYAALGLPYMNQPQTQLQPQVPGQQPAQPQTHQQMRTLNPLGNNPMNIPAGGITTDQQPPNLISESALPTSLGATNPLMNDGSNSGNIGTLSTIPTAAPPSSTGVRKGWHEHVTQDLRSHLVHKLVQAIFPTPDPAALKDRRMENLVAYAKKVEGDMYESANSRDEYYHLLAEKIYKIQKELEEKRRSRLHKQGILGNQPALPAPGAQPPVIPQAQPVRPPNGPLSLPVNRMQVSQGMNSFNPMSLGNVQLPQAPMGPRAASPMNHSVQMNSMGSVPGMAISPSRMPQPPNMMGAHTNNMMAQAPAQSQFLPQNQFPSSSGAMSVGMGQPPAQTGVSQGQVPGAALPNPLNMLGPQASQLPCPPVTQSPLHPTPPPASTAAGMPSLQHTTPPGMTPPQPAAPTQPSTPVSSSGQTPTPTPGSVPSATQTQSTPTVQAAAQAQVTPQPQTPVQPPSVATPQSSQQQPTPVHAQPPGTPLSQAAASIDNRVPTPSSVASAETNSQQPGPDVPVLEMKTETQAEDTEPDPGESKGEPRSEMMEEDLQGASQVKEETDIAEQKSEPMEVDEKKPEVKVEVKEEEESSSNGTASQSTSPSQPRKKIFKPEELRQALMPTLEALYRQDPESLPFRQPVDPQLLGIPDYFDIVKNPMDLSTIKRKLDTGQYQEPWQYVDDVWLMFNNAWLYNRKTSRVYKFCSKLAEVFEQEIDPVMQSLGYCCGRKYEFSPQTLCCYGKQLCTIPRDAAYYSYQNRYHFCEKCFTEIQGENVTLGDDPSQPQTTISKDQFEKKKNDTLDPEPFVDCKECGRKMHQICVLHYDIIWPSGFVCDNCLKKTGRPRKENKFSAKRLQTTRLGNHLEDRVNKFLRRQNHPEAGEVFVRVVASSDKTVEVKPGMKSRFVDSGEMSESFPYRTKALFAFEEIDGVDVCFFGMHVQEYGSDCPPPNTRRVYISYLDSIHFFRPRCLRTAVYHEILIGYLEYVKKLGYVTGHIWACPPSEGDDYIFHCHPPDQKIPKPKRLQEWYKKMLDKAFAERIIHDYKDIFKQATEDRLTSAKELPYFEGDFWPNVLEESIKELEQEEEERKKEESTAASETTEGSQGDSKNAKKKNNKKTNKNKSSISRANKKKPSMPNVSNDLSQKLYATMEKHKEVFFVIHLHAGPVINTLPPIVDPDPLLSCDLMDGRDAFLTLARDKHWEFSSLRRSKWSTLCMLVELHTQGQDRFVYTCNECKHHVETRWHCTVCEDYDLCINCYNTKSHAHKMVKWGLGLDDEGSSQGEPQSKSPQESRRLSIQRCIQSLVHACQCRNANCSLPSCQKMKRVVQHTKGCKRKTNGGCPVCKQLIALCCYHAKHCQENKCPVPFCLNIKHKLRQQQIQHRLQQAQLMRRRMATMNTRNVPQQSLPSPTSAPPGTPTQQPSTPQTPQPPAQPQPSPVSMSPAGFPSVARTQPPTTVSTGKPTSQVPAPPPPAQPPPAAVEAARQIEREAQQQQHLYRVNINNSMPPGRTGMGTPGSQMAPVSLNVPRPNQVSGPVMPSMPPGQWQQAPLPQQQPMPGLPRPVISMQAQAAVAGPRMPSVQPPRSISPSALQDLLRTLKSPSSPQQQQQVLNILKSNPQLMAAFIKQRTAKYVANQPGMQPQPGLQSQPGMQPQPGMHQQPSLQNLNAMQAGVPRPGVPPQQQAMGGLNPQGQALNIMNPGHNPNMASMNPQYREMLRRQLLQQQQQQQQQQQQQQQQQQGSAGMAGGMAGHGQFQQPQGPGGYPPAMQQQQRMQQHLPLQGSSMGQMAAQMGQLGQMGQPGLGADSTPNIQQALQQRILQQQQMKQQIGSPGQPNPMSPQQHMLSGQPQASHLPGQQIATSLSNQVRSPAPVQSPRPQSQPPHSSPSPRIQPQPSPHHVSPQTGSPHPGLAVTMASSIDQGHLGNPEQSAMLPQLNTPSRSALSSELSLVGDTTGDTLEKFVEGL

For `CC1=NN(c2ccc(C(=O)NCCCOCCOCCOCCCNC(=O)COc3cccc4c3C(=O)N(C3CCC(=O)NC3=O)C4=O)cc2)C(=O)/C1=C\c1ccc(-c2cc(C)c(C)cc2[N+](=O)[O-])o1` (centres unmarked) [Compound 1, (Z)‐4‐(4‐((5‐(4,5‐dimethyl‐2‐nitrophenyl)furan‐2‐yl)methylene)‐3‐methyl‐5‐oxo‐4,5‐dihydro‐1 H‐pyrazol‐1‐yl)‐N‐(1‐((2‐(2,6‐dioxopiperidin‐3‐yl)‐1,3‐dioxoisoindolin‐4‐yl)oxy)‐2‐oxo‐7,10,13‐trioxa‐3‐azahexadecan‐16‐yl)benzamide], the H3K27 acetylation result in [1] (SU‐DHL‐10, 5 μM) was “decreased H3K27 acetylation”. For the same compound, the IC50 in [2] (setting [14]) is 3440 ± 120 nM; in [2] (setting [15]) it was 2730 ± 72 nM; in experiment [3] it was 1950 ± 69 nM; in experiment [4], 3240 ± 280 nM; in experiment [5], 600 to 900 nM; in [7], 600 to 900 nM. The results for the IC50 in experiment [8], in experiment [10] and in experiment [11] were 2000 to 8000 nM, 2990 ± 190 nM and 2050 ± 68 nM, respectively. Further, the “p300 levels (WB)” value is “decreased protein levels” in experiment [6] (SU‐DHL‐10, 2.5 μM, 8 h); “no difference was observed” in experiment [6] (SU‐DHL‐10, 2.5 μM, 24 h); “significantly reduced p300 levels” in [6] (SU‐DHL‐10, 10 μM, 24 h). The “p300 protein levels (WB)” value in experiment [6] (24 h) is “dose‐dependent reduction”. Moreover, the “CBP levels (WB)” value is “reduced the levels of CBP; also recorded: decreased the levels of CBP” in [9] (SU‐DHL‐10, 2.5 μM, 8 h) and “returned to the initial levels” in experiment [9] (SU‐DHL‐10, 2.5 μM, 24 h). For the same compound, the “decrease of protein (CBP) levels” value in [9] (SU‐DHL‐10, 10 μM, 24 h) is recorded as “roughly 70%”. For the same compound, the “CBP levels (WB), combination with C646” value in [9] (SU‐DHL‐10, 1 2.5 μM + C646 10 μM, 8 h) was “did not affect CBP levels”. Also, the “CBP degradation (WB), co‐incubation with MG132” value in experiment [9] (SU‐DHL‐10, 1 2.5 μM + MG132 10 μM, 8 h) is recorded as “abolishes 1‐induced CBP degradation”. Besides, the “CBP protein levels (WB)” value in experiment [9] (SU‐DHL‐10, increasing concentrations, 24 h) is “dose‐dependent reduction; also recorded: slightly better efficacy on CBP compared to the previously reported PROTAC JQAD1”.
For the compound `CC1=NN(c2ccc(C(=O)NCCOCCOCCNC(=O)COc3cccc4c3C(=O)N(C3CCC(=O)NC3=O)C4=O)cc2)C(=O)/C1=C\c1ccc(-c2cc(C)c(C)cc2[N+](=O)[O-])o1` (centres unmarked) [Compound 2, (Z)‐4‐(4‐((5‐(4,5‐dimethyl‐2‐nitrophenyl)furan‐2‐yl)methylene)‐3‐methyl‐5‐oxo‐4,5‐dihydro‐1 H‐pyrazol‐1‐yl)‐N‐(2‐(2‐(2‐(2‐((2‐(2,6‐dioxopiperidin‐3‐yl)‐1,3‐dioxoisoindolin‐4‐yl)oxy)acetamido)ethoxy)ethoxy)ethyl)benzamide], the IC50 was 6440 ± 810 nM in experiment [2] (setting [14]); 6340 ± 1760 nM in experiment [2] (setting [15]); 7810 ± 3040 nM in experiment [3]; 5230 ± 850 nM in [4]; 600 to 900 nM in experiment [5]; 600 to 900 nM in experiment [7]. Further, the IC50 is 2000 to 8000 nM in experiment [8], 8020 ± 2460 nM in experiment [10] and 4960 ± 330 nM in experiment [11]. Also, the “p300 levels (WB)” value in experiment [6] (SU‐DHL‐10, 2.5 μM, 8 h) is “decreased protein levels”; in [6] (SU‐DHL‐10, 2.5 μM, 24 h), “no difference was observed”; in [6] (SU‐DHL‐10, 10 μM, 24 h), “significantly reduced p300 levels”. In addition, the “CBP levels (WB)” value in [9] (SU‐DHL‐10, 2.5 μM, 8 h) is “slightly less active”; in [9] (SU‐DHL‐10, 2.5 μM, 24 h), “returned to the initial levels”. Moreover, the “decrease of protein (CBP) levels” value in [9] (SU‐DHL‐10, 10 μM, 24 h) is recorded as “roughly 70%”.
Consider `CNC(=O)Nc1ccc2c(c1)CC[C@@]21OC(=O)N(CC(=O)N(Cc2ccc(F)cc2)[C@@H](C)C(F)(F)F)C1=O` [Compound A485, A‐485], for which the H3K27 acetylation result in [1] (SU‐DHL‐10, 5 and 10 μM) was “reduced H3K27 acetylation in a dose‐dependent fashion”.
Consider `CC1=NN(c2ccc(C(=O)O)cc2)C(=O)/C1=C\c1ccc(-c2cc(C)c(C)cc2[N+](=O)[O-])o1` [Compound C646, C646, reference compound], for which the “inhibition of histone deacetylases (HDACs)” value in experiment [12] is listed as “inhibit histone deacetylases (HDACs) at low micromolar concentrations”. For the same compound, the H3K27 acetylation result in experiment [1] (SU‐DHL‐10, 5 and 10 μM) is “did not reduce acetylation”. Also, the IC50 was 12200 ± 3020 nM in experiment [2] (setting [14]) and 210 ± 10 nM in [7]. For the same compound, in experiment [9] (SU‐DHL‐10, 10 μM, 8 h), the “CBP levels (WB)” value is given as “no effect on CBP levels”.
Regarding `CC(C)C[C@@H](C=O)NC(=O)[C@H](CC(C)C)NC(=O)[C@H](CC(C)C)NC(=O)OCc1ccccc1` [MG132, reference compound] (Cbz-Leu-Leu-Leu-aldehyde), the IC50 in [2] (setting [14]) amounted to 144 ± 2 nM.
With `O=C1CCC(N2C(=O)c3ccccc3C2=O)C(=O)N1` (centres unmarked) [Thalidomide, thalidomide, reference compound], the IC50 in experiment [2] (setting [14]) is more than 20000 nM. For the same compound, in experiment [2] (SU‐DHL‐10, 24 h, up to 20 μM), the “effect on cell viability” value was “no significant effects on cell viability”.
Turning to JQAD1, the H3K27 acetylation result in experiment [1] (SU‐DHL‐10, 5 and 10 μM) is on record as “reduced H3K27 acetylation in a dose‐dependent fashion”. Besides, in experiment [6] (24 h), the “p300 protein levels (WB)” value is reported as “slightly higher potency”. In addition, the “IC50, neuroblastoma cell viability” value in experiment [13] is “nanomolar range”.
